According to patent US10653695B2, “Pharmaceutical formulations of neflamapimod” (EIP Pharma, LLC, priority 2018, dated 2020):

How the values were obtained:
[1] = Dissolution testing (USP <711>, Apparatus 2) of neflamapimod capsules and blends, including on stability; assay type: physicochemical; details: powder-in-capsule vs capsules stored at 40° C./75% RH; FIG. 1
From the text: USP Dissolution Acceptance Criteria. Dissolution testing of a drug product is a method for evaluating physiological availability that depends upon having the drug in a dissolved state. The United States Pharmacopoeia (“USP”) dissolution testing <USP 711> involves three stages with the acceptance criteria defined for each stage as a function of a quantity Q, a percentage of the label value that is established for each drug product.
Dissolution testing data described herein are generated according to the specifications shown below in Table 3 and using the procedure set forth by the United States Pharmacopeial Convention in USP <711>.
Determined by the procedure set forth in Example 1.1.

[2] = cited from earlier work

- Dissolution compared to the aged capsules [1]: better dissolution
SMILES: O=c1ncn2nc(Sc3ccc(F)cc3F)ccc2c1-c1c(Cl)cccc1Cl [Neflamapimod]
- Solubility in water [2]: very low
